# Measured values taken from PubChem BioAssay (NCI).
#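 Exposure lasted 48 hours, with cells grown in 96-well plates and compounds tested at five concentrations. Here, GI50 denotes the concentration required for 50% inhibition of growth. Definition used: TGI = concentration required for complete inhibition of growth.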
# Tested on: TK-10 renal
# Experiment: growth of human tumour cells (NCI), 48 h
SMILES,GI50,TGI
CC1OC2CC(=O)OC2C2=C1C(=O)c1c(O)cccc1C2=O (centres undefined),0.0795 µM,0.283 µM
O=C1NC(=Nc2ccccc2)S/C1=C\c1ccc2ncccc2c1,> 25 µM,> 25 µM
C/C1=C\CC[C@@]2(C)O[C@@H]2[C@H]2OC(=O)[C@@H](CN(C)C)[C@@H]2CC1,3.09 µM,7.7 µM
Oc1ccc(Cl)cc1Cc1cc(Cl)cc(Cl)c1O,7.88 µM,44.1 µM
C=C(C=O)C1CCC2(C(=O)O)CCC3(C)C(CCC4C5(C)CCC(O)C(C)(C)C5CCC43C)C12 (centres undefined),4.04 µM,18.1 µM
COc1ccc(N2C(=O)C(c3ccccc3)(c3ccccc3)C23C(=O)N(C)c2ccccc23)cc1 (centres undefined),> 100 µM,> 100 µM
CC(C)=C[C@@H]1C[C@H](C)[C@H]2CC[C@H](C)C3=C2[C@](O)(OC3=O)[C@]1(C)O,> 100 µM,> 100 µM
CCC[CH2][Sn]([CH2]CCC)([CH2]CCC)[O]C(=O)CC,0.161 µM,0.305 µM
C=C(C)[C@@]12OC3(/C=C/C=C/CCCCC)O[C@@H]1[C@@H]1[C@@H]4O[C@]4(CO)[C@@H](O)[C@]4(O)C(=O)C(C)=C[C@H]4[C@@]1(O3)[C@H](C)[C@H]2OC(=O)c1ccccc1,< 0.0106 µM,2.17 µM
O=c1c2ccccc2[se]n1-c1cccnc1,–,50.1 µM
NC(=NCCCOc1ccc(Cl)cc1)Nc1ccc(C(F)(F)F)cc1,1.73 µM,3.66 µM

# Tested on: SN12C renal
# Experiment: growth of human tumour cells (NCI), 48 h
SMILES,GI50,TGI
CC1OC2CC(=O)OC2C2=C1C(=O)c1c(O)cccc1C2=O (centres undefined),0.116 µM,0.259 µM
O=C1NC(=Nc2ccccc2)S/C1=C\c1ccc2ncccc2c1,> 25 µM,> 25 µM
C/C1=C\CC[C@@]2(C)O[C@@H]2[C@H]2OC(=O)[C@@H](CN(C)C)[C@@H]2CC1,12.8 µM,32.4 µM
Oc1ccc(Cl)cc1Cc1cc(Cl)cc(Cl)c1O,3.7 µM,21.8 µM
C=C(C=O)C1CCC2(C(=O)O)CCC3(C)C(CCC4C5(C)CCC(O)C(C)(C)C5CCC43C)C12 (centres undefined),4.09 µM,> 89.9 µM
COc1ccc(N2C(=O)C(c3ccccc3)(c3ccccc3)C23C(=O)N(C)c2ccccc23)cc1 (centres undefined),> 100 µM,> 100 µM
CC(C)=C[C@@H]1C[C@H](C)[C@H]2CC[C@H](C)C3=C2[C@](O)(OC3=O)[C@]1(C)O,> 100 µM,> 100 µM
CCC[CH2][Sn]([CH2]CCC)([CH2]CCC)[O]C(=O)CC,0.158 µM,0.365 µM
C=C(C)[C@@]12OC3(/C=C/C=C/CCCCC)O[C@@H]1[C@@H]1[C@@H]4O[C@]4(CO)[C@@H](O)[C@]4(O)C(=O)C(C)=C[C@H]4[C@@]1(O3)[C@H](C)[C@H]2OC(=O)c1ccccc1,1.49 µM,2.83 µM
O=c1c2ccccc2[se]n1-c1cccnc1,–,99.4 µM
NC(=NCCCOc1ccc(Cl)cc1)Nc1ccc(C(F)(F)F)cc1,3.07 µM,14.2 µM

# Tested on: ACHN renal
# Experiment: growth of human tumour cells (NCI), 48 h
SMILES,GI50,TGI
CC1OC2CC(=O)OC2C2=C1C(=O)c1c(O)cccc1C2=O (centres undefined),0.0299 µM,0.0992 µM
O=C1NC(=Nc2ccccc2)S/C1=C\c1ccc2ncccc2c1,> 25 µM,> 25 µM
C/C1=C\CC[C@@]2(C)O[C@@H]2[C@H]2OC(=O)[C@@H](CN(C)C)[C@@H]2CC1,15.6 µM,31.6 µM
Oc1ccc(Cl)cc1Cc1cc(Cl)cc(Cl)c1O,3.69 µM,18 µM
C=C(C=O)C1CCC2(C(=O)O)CCC3(C)C(CCC4C5(C)CCC(O)C(C)(C)C5CCC43C)C12 (centres undefined),1.69 µM,3.23 µM
COc1ccc(N2C(=O)C(c3ccccc3)(c3ccccc3)C23C(=O)N(C)c2ccccc23)cc1 (centres undefined),> 100 µM,> 100 µM
CC(C)=C[C@@H]1C[C@H](C)[C@H]2CC[C@H](C)C3=C2[C@](O)(OC3=O)[C@]1(C)O,> 100 µM,> 100 µM
CCC[CH2][Sn]([CH2]CCC)([CH2]CCC)[O]C(=O)CC,0.17 µM,0.333 µM
C=C(C)[C@@]12OC3(/C=C/C=C/CCCCC)O[C@@H]1[C@@H]1[C@@H]4O[C@]4(CO)[C@@H](O)[C@]4(O)C(=O)C(C)=C[C@H]4[C@@]1(O3)[C@H](C)[C@H]2OC(=O)c1ccccc1,1.16 µM,4.43 µM
O=c1c2ccccc2[se]n1-c1cccnc1,–,88.1 µM
NC(=NCCCOc1ccc(Cl)cc1)Nc1ccc(C(F)(F)F)cc1,2.27 µM,7.03 µM

# Tested on: DU-145 prostate
# Experiment: growth of human tumour cells (NCI), 48 h
SMILES,GI50,TGI
CC1OC2CC(=O)OC2C2=C1C(=O)c1c(O)cccc1C2=O (centres undefined),0.15 µM,0.284 µM
O=C1NC(=Nc2ccccc2)S/C1=C\c1ccc2ncccc2c1,> 25 µM,> 25 µM
C/C1=C\CC[C@@]2(C)O[C@@H]2[C@H]2OC(=O)[C@@H](CN(C)C)[C@@H]2CC1,4.75 µM,28.1 µM
Oc1ccc(Cl)cc1Cc1cc(Cl)cc(Cl)c1O,4.94 µM,53.7 µM
C=C(C=O)C1CCC2(C(=O)O)CCC3(C)C(CCC4C5(C)CCC(O)C(C)(C)C5CCC43C)C12 (centres undefined),1.6 µM,3.55 µM
COc1ccc(N2C(=O)C(c3ccccc3)(c3ccccc3)C23C(=O)N(C)c2ccccc23)cc1 (centres undefined),> 100 µM,> 100 µM
CC(C)=C[C@@H]1C[C@H](C)[C@H]2CC[C@H](C)C3=C2[C@](O)(OC3=O)[C@]1(C)O,> 100 µM,> 100 µM
CCC[CH2][Sn]([CH2]CCC)([CH2]CCC)[O]C(=O)CC,0.136 µM,0.271 µM
C=C(C)[C@@]12OC3(/C=C/C=C/CCCCC)O[C@@H]1[C@@H]1[C@@H]4O[C@]4(CO)[C@@H](O)[C@]4(O)C(=O)C(C)=C[C@H]4[C@@]1(O3)[C@H](C)[C@H]2OC(=O)c1ccccc1,0.105 µM,2.11 µM
O=c1c2ccccc2[se]n1-c1cccnc1,–,34.6 µM
NC(=NCCCOc1ccc(Cl)cc1)Nc1ccc(C(F)(F)F)cc1,2.62 µM,7.26 µM

# Tested on: SF-268 CNS
# Experiment: growth of human tumour cells (NCI), 48 h
SMILES,GI50,TGI
CC1OC2CC(=O)OC2C2=C1C(=O)c1c(O)cccc1C2=O (centres undefined),0.163 µM,0.436 µM
O=C1NC(=Nc2ccccc2)S/C1=C\c1ccc2ncccc2c1,> 10.3 µM,> 25 µM
C/C1=C\CC[C@@]2(C)O[C@@H]2[C@H]2OC(=O)[C@@H](CN(C)C)[C@@H]2CC1,38.7 µM,> 100 µM
Oc1ccc(Cl)cc1Cc1cc(Cl)cc(Cl)c1O,3.82 µM,57.9 µM
C=C(C=O)C1CCC2(C(=O)O)CCC3(C)C(CCC4C5(C)CCC(O)C(C)(C)C5CCC43C)C12 (centres undefined),2.15 µM,10.5 µM
COc1ccc(N2C(=O)C(c3ccccc3)(c3ccccc3)C23C(=O)N(C)c2ccccc23)cc1 (centres undefined),> 100 µM,> 100 µM
CC(C)=C[C@@H]1C[C@H](C)[C@H]2CC[C@H](C)C3=C2[C@](O)(OC3=O)[C@]1(C)O,–,> 100 µM
CCC[CH2][Sn]([CH2]CCC)([CH2]CCC)[O]C(=O)CC,0.146 µM,0.345 µM
C=C(C)[C@@]12OC3(/C=C/C=C/CCCCC)O[C@@H]1[C@@H]1[C@@H]4O[C@]4(CO)[C@@H](O)[C@]4(O)C(=O)C(C)=C[C@H]4[C@@]1(O3)[C@H](C)[C@H]2OC(=O)c1ccccc1,1.7 µM,3.15 µM
O=c1c2ccccc2[se]n1-c1cccnc1,–,70.6 µM
NC(=NCCCOc1ccc(Cl)cc1)Nc1ccc(C(F)(F)F)cc1,2.77 µM,15.9 µM
